The values that follow come from patent publication US8158587B2, “Compound having histone deacetylase-inhibiting activity, and pharmaceutical composition comprising the compound as an active ingredient” (Kyushu Institute of Technology, priority 2006, dated 2012).

Assay [1] has as its target T1, human HDAC4 (Homo sapiens, UniProt P56524).
T1 construct: made in house; host or cells: 293T cells (transient transfection, anti-FLAG immunoprecipitation, FLAG peptide elution)
As to the kind of experiment: HDAC-inhibiting activity, coumarin-labeled acetylated histone peptide assay. The format is biochemical. Conditions: human HDAC4 from transfected 293T cells; 37° C., 30 minutes; read-out: HDAC-inhibiting activity IC50 HDAC4. As to the method:
In carrying out HDAC-inhibiting activity measurements, HDAC solutions were prepared in the following manner. […] The human HDAC1 expression vector used was pcDNA3-HD1 (Yang, W. M., Yao, Y. L., Sun, […]. & Seto, E. (1997) J. Biol. Chem. 272, 28001-28007), the human HDAC4 expression vector used was pcDNA3-HD4 ([…]., Nagase, […]. Biol. Chem. 274, 11713-11720), and the murine HDAC6 expression vector used was pcDNA3-mHDA2/HDAC6 ([…]. Biol. Chem. 274, 2440-2445). After 24 hours of incubation, cells were recovered, washed with PBS, suspended in lysis buffer (50 mM Tris-HCl (pH 7.5), 120 mM NaCl, 5 mM EDTA, 0.5% Nonidet P-40), and sonicated. The supernatant was collected by centrifugation and then deprived of nonspecific proteins using Protein A/G plus agarose beads (Santa Cruz Biotechnologies, Inc.). Thereafter, anti-FLAG M2 antibody (Sigma-Aldrich Inc.) was added, and the reaction was allowed to proceed at 4° C. for 2 hours. To this were added agarose beads, the reaction was allowed to proceed at 4° C. for 3 hours, and the agarose beads were washed three times with lysis buffer and then once with HD buffer (20 mM Tris-HCl (pH 8.0), 150 mM NaCl, 10% glycerol). […] HDAC-inhibiting activity evaluation in each in vitro system was made as follows. Each test compound was dissolved in DMSO, a stock solution with a concentration of 10 mM was thus prepared and this was used as an inhibitor stock solution. The assay was carried out by incubating the HDAC solution and a coumarin-labeled acetylated histone peptide solution in the presence of the test compound at 37° C. for 30 minutes (reaction volume 20 μl). To the reaction mixture was added 30 μl of trypsin, and the aminomethylcoumarin released by the enzymatic reaction was assayed using a fluorescent plate reader. In a negative control assay, no inhibitor was added to the reaction system and the same procedure was carried out.

In assay [2] the test system is human wild type p21 promoter. The experiment in a line: p21 promoter assay (luciferase) in MFLL-9 cells. The format is cell-based. The conditions noted are these: 20 hours, concentration giving 1000% luminescence relative to negative control (100%). As to the method:
As an HDAC-inhibiting activity in an […] system, the following measurement was carried out using the p21 promoter inducing activity as an index. MFLL-9 cells used in the experiment are cells stably retaining a fusion gene (Dr. B. Vogelstaein) from the human wild type p21 promoter and luciferase gene. They were cultured using phenol red-free DMEM supplemented with 10% FBS in a steam-saturated incubator at 37° C. in the presence of 5% carbon dioxide. These MFLL-9 cells were sowed onto a 96-well microplate at a cell density of 2×10^4 cells/well and, after 24 hours of cultivation in 99 μl, per well, of the medium mentioned above, each test compound solution was added, followed by 20 hours of incubation. […] In a negative control, the same procedure was carried out without adding any inhibitor to the reaction system.
Using Luciferase Assay Reagent (Promega), the intensity of the luminescence due to the product of the enzymatic reaction involving luciferase expressed within cells was measured.

The subject of assay [3] is lung cancer cell line NCI-H522. The experiment in a line: Human cancer cell line panel, proliferation (sulforhodamine B). The format is cell-based. The conditions noted are these: NCI-H522, 2 days of cultivation; read-out: 50% inhibitory concentration, proliferation. An excerpt: (§1) The characteristics of the human cancer cell proliferation-inhibiting activity of the compounds of the present invention were examined by the “method of evaluating the mechanisms of action of compounds using a panel of human cancer cell lines” as proposed by Yamori et al. (cf. Gan to Kagaku Ryoho (Cancer and Chemotherapy) 29 Suppl. II (2002) and Cancer Chemother. Pharmacol. 52 Suppl. I, S74-79 (2003)).
(§2) This system includes […] (7 lung cancer, 6 stomach cancer, 5 colon cancer, 5 ovarian cancer, 6 brain tumor, […], 2 kidney cancer and 2 prostate cancer cell lines as well as one melanoma line) and the method comprises measuring the in vitro drug susceptibilities of those cancer cell lines and expressing the differences in drug susceptibility among the respective cancer cell lines as a fingerprint. […] By utilizing this property, it is possible to estimate the mechanisms of action of a compound. The above method is also characterized in that an anticancer substance showing new and unique mechanisms of action different from those of the existing anticancer agents can be selected.
(§3) Cancer cells of each cell line are sowed onto a 96-well plate, a sample solution is added on the next day and, after 2 days of cultivation, the cell proliferation is measured by colorimetry using sulforhodamine B. The deviations in effective concentration for the respective cancer cell lines from the mean effective drug concentration for the 39 cancer cell lines subjected to measurement are calculated and shown in the form a fingerprint.

Assay [4] deals with melanoma cell line LOX-IMVI. The description is as above. The conditions noted are these: 2 days of cultivation, read-out: 50% inhibitory concentration, proliferation. In kind it is cell-based.
Excerpt: as §1, §2, §3

T1 sequence (P56524 whole entry): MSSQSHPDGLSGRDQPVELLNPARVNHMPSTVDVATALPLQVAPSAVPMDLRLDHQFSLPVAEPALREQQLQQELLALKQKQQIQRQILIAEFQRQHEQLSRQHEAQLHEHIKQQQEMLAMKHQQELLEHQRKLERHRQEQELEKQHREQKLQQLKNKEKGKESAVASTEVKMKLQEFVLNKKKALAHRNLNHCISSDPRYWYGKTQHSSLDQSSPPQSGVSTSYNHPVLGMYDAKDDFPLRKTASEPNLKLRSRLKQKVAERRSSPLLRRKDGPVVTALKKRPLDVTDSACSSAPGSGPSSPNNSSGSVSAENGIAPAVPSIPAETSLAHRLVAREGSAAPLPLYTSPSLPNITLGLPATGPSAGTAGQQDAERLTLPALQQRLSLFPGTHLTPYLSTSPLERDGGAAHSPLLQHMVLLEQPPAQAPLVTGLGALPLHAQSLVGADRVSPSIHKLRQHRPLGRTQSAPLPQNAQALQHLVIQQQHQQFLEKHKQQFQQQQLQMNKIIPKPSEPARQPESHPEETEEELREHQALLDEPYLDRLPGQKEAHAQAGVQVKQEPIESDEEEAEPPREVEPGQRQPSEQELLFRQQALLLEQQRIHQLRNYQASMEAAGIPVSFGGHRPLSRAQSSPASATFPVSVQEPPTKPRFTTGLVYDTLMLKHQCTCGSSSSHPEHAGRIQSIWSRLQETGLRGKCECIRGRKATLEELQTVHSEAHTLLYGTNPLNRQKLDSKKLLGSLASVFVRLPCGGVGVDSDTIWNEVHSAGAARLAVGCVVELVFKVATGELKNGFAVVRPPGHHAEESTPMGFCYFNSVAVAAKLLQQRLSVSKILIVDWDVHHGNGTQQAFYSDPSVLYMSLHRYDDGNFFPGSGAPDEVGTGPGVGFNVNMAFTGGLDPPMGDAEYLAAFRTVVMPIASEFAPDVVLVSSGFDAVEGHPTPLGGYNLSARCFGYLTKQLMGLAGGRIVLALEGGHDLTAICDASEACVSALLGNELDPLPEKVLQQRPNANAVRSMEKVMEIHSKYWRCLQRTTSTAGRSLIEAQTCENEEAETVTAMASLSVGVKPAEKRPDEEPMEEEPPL
T1 sequence (O15379 whole entry, further chain): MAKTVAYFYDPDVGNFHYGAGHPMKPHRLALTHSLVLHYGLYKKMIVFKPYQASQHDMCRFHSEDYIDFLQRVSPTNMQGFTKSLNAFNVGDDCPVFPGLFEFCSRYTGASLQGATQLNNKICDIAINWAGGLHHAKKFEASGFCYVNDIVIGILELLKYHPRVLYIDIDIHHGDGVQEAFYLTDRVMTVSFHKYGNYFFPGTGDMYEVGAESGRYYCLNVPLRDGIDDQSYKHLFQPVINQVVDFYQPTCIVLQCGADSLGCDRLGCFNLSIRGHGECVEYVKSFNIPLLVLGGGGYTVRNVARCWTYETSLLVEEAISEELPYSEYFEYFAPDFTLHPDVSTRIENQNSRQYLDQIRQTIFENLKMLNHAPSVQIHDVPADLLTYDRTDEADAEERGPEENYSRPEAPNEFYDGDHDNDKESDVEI

`COCC(=O)CCCCC[C@@H]1NC(=O)[C@H]2CCCN2C(=O)[C@H](Cc2ccccc2)NC(=O)C(C)(C)NC1=O` [Ky-9, cyclo(-L-Ae9(Mmk)-Aib-L-Phe-D-Pro-)]: the IC50 in assay [1] was 28 nM; in assay [3], at most 100 nM; in assay [4], at most 100 nM. For the same molecule, the “p21 promoter activity EC1000” value in assay [2] turned out to be 0.043 µM.
